Measurements: paper PMC9671962 (Communications Biology, 2022)
Where “and” joins values, the source holds several entries; their conditions need not be identical. Equal entries are not always repeated.

Legend:
[1] = system: platelets, white blood cells, lymphocytes, neutrophils; assay: Hematological toxicity by complete blood counts; format: in vivo, CB-17 SCID mice; parameters: Neutrophils / Lymphocytes / WBC: unit not given here; settings: for Lymphocytes / Neutrophils / Platelets / WBC: 72 hours post-treatment, single mouse
Experimental: Toxicity studies were done in nontumor bearing CB-17 SCID mice (Taconic Biosciences). […] Each arm had n = 10 mice (5 male, 5 female mice). […] The vehicle group received an equal volume of saline (placebo). Weights were obtained twice weekly and mice were monitored daily for signs of toxicity. […] On target hematological and marrow toxicity which was evaluated by complete blood counts and marrow colony formation assay. An additional study was performed under identical conditions to evaluate additive dose effects. […] Each treatment group was composed of equal numbers of male and female mice to rule out gender-specific effects (n = 4 per treatment group per time point). Mice were followed for signs of acute toxicity for 2 weeks and 4 weeks before euthanasia. An additional group (n = 4) treated at 36 MBq/kg was euthanized after 72 h to assess early signs of toxicity by colony formation assays. This time course was chosen to best capture the nadir of bone marrow suppression. After euthanasia, blood was collected and femurs were dissected and processed for histopathology and bone marrow evaluation.
Animals were monitored weekly for weight and daily for signs of distress until the time of euthanasia. […] Mice were anesthetized with mixed inhalation isoflurane/oxygen under a nosecone. Terminal cardiac puncture was performed and peripheral blood was transferred to K2EDTA BD Microtainer tubes (BD, San Antonio, TX). Sample volume injected was 20 µL and was pre-specified using the mouse protocol on the instrument.

COG-N-453x = assay: Pre-clinical efficacy study, COG-N-453x PDX; format: in vivo; settings: single mouse
Experimental: (§1) Patient demographics and genetic characteristics are listed in (Supplementary Tables 1, 2)[17]. The maximum tolerated dose (MTD) was determined to be 36 MBq/kg administered by intra-peritoneal injection twice weekly for a total of 4 dose fractions and this fractionated regimen was used in all studies (Supplementary Fig. 1)[18],[19]. […] Nine of 11 PDX models were MYCN amplified (Fig. 1b), which is a hallmark of high-risk neuroblastoma. Tumor response was measured as the maximum percent decrease in tumor volume after treatment and event-free survival (EFS) was measured by the area over the curve method with tumor events pre-defined by tumor growth exceeding 2 cm[3],[18].
(§2) The use of 2 mice per arm was based on the previously reported statistical analysis. PDX tumors were implanted into the right flank of 5 to 6-weeks old female mice weighing about 20–25 grams. […] Two additional dose levels of 12, and 24 MBq/kg/fraction were assessed in a subset of models and were administered as stated above. In two models treated at the 24 MBq/kg/fraction dose level we re-challenged tumor response at the time of tumor progression with an additional 4 dose fractions at 24 MBq/kg/fraction given twice weekly. Doses were prepared in 500 µL total volume. An equal volume of saline was used for the vehicle group. Tumors were measured using a digital caliper at the initiation of the study and two times per week during the treatment period. Tumor volumes were calculated as volume = ([…]∗0.5236)/1000. Weights were obtained twice weekly and mice were monitored daily for signs of toxicity. […] Tumor response was assessed by best response defined as greatest reduction in tumor volume following the last dose and is presented as percent change in tumor volume. Event-free survival was determined by area over the curve method that calculates the time to tumor event, which was defined as tumors reaching or exceeding a size ≥ 2 cm^3.
(§3) Animal studies were performed in female mice due to the lack of sex-related differences for [^211At]PTT tolerability from initial dose response studies performed in female and male mice. Female mice were chosen due to their underlying behavior towards other study subjects that reduced nonstudy-related causes for decreased wellness. Pre-clinical efficacy studies were performed through “single mouse testing” to more closely recapitulate a clinical trial. […] Number size for treatment groups was determined by model tumor growth reproducibility, which was previously shown to have less than 5% normal variation with at least two animals. Statistical tests for tumor response and event-free survival (EFS) were performed as a grouped analysis that included all tumor models treated at each respective dose level (n = 2 per model per dose level). Statistical differences between treatment groups for tumor response was performed by paired-model T-test that compared reduction in tumor volume for the 36 MBq/kg dose level vs. 24 MBq/kg or 12 MBq/kg. Event free survival was measured by area over the curve method to quantify time to event, which was set as tumor growth exceeding 2 cm[3],[19]. Differences in EFS were tested across all treated models for each respective dose level, and against untreated controls, by paired-model ANOVA analysis. Associations of drug target expression and response were performed by linear regression analysis of EFS and PARP1 mRNA expression. Genetic signatures were visually presented as a function of EFS and no statistical tests were applied. Blood and marrow toxicity studies were performed with n = 5 sample sizes and powered to detect >20% differences between untreated controls and treated animals. Results were tested for significance by one-way ANOVA comparison from untreated controls. Marrow colony formation assays were performed in replicates of 2 for each mouse subject, dependent on marrow isolation, and all replicates are included in final analyses. […]

COG-N-415x = assay: Pre-clinical efficacy study, COG-N-415x PDX; format: in vivo; settings: single mouse
Experimental: as §1, §2, §3

[2] = 12 MBq/kg/fraction x 4 fractions
[3] = 24 MBq/kg/fraction x 4 fractions
[4] = 36 MBq/kg/fraction x 4 fractions

O=C1NCCn2c(-c3ccc([211At])cc3)nc3cccc1c32 [[^211At]PTT, Astatine-211-parthanatine]
thrombocytopenia ([1]; 3 or less dose fractions at the 36 MBq/kg dose level): did not result in thrombocytopenia | Lymphocytes ([1]; 36 MBq/kg x 4 dose fractions): 0.28 and 0.26 and 0.38 and 0.27 | Neutrophils ([1]; 36 MBq/kg x 4 dose fractions): 0.42 and 0.22 and 0.16 and 0.34 | Platelets ([1]; 36 MBq/kg x 4 dose fractions): 263 K/uL and 99 K/uL and 201 K/uL and 158 K/uL and 200 K/uL | WBC ([1]; 36 MBq/kg x 4 dose fractions): 0.78 and 0.26 and 0.58 and 0.62 and 0.7 | Lymphocytes ([1]; 48 MBq/kg x 4 dose fractions): 0.14 and 0.29 and 0.08 and 0.12 and 0.25 | Neutrophils ([1]; 48 MBq/kg x 4 dose fractions): 0.24 and 0.18 and 0.26 and 0.09 and 0.13 | Platelets ([1]; 48 MBq/kg x 4 dose fractions): 200 K/uL and 160 K/uL and 240 K/uL and 190 K/uL and 133 K/uL | WBC ([1]; 48 MBq/kg x 4 dose fractions): 0.5 and 0.6 and 0.36 and 0.26 and 0.48 | Lymphocytes ([1]; 60 MBq/kg x 4 dose fractions): 0.28 and 0.29 and 0.41 and 0.11 | Neutrophils ([1]; 60 MBq/kg x 4 dose fractions): 0.41 and 0.09 and 0.71 and 0.08 | Platelets ([1]; 60 MBq/kg x 4 dose fractions): 112 K/uL and 166 K/uL and 138 K/uL and 165 K/uL and 116 K/uL | WBC ([1]; 60 MBq/kg x 4 dose fractions): 0.14 and 0.76 and 0.44 and 1.42 and 0.22 | Hematological toxicity versus control ([1]; 72 hours after the final dose fraction, 36, 48, 60 MBq/kg/fraction x 4): significant reductions in platelets, white blood cells, and lymphocytes at all dose levels | time of full recovery from hematological and marrow toxicity ([1]; post-therapy at the MTD): ≤ 4 weeks | time of full recovery of peripheral blood counts ([1]; post-treatment, 2 or 3 dose fractions of 36 MBq/kg): 4 weeks | Effect on neutrophils ([1]; treatment with [^211At]PTT): largely unaffected | EFS by AOC method (COG-N-453x; [2]): 19.5598 days and 22.4877 days | Tumor response (% growth from study initiation at ~ 200 mm3) (COG-N-453x; [2]): 25% and -63.158% | EFS by AOC method (COG-N-453x; [3]): 43.7943 days and 33.4459 days | Tumor response (% growth from study initiation at ~ 200 mm3) (COG-N-453x; [3]): -100% and -90.323% | EFS by AOC method (COG-N-453x; [4]): 48.6067 days and 52.9347 days | Tumor response (% growth from study initiation at ~ 200 mm3) (COG-N-453x; [4]): -100% | EFS by AOC method (COG-N-415x; [2]): 14.1951 days and 16.6777 days | Tumor response (% growth from study initiation at ~ 200 mm3) (COG-N-415x; [2]): 74.1936% and -21.7391% | EFS by AOC method (COG-N-415x; [3]): 27.6 days and 26.9 days and 27.5972 days and 26.9655 days | Tumor response (% growth from study initiation at ~ 200 mm3) (COG-N-415x; [3]): -80.7692% and -84.6154% | EFS by AOC method (COG-N-415x; [4]): 38.3761 days and 73.0746 days | Tumor response (% growth from study initiation at ~ 200 mm3) (COG-N-415x; [4]): -100% and -94.4444%
